Measured values: patent US7687465B2, “Therapeutic cancer vaccine” (Kraeftens Bekaempelse, priority 2003, dated 2010)

Tests used:
HLA-A2 = molecular target: T1, HLA-A2 (Homo sapiens, UniProt P04439, D140Y/D185E/D98H/E176V/E277Q/G131W/G231S/I119V/I121R/I166T/I218V/L300P/L318F/N151K/N90K/P208A/P217A/Q86G/Q94H/R138H/R169H/T345S); assay: Assembly assay for peptide binding to class I MHC molecules; conditions: concentration of the peptide required for half maximal binding to HLA-A2; read-out: C50
T1 construct: stabilization of the class 1 molecule after loading of peptide to the peptide transporter deficient cell line T2; endogenous in cells; host or cells: T2 (TAP-deficient human cell line), metabolically labelled with [35S]-methionine and lysed
Method: Assembly assays for binding of the synthetic peptides to class I MHC molecules metabolically labeled with [^35S]-methionine can be carried out as described below. It will be appreciated by the person skilled in the art that the protocol may be adopted for any peptide and any class I MHC molecule.
Briefly, TAP deficient cells were metabolically labeled with [^35S]-methionine (Amersham, Freiburg, Germany). The cells were lyzed in 0.5 ml lysis buffer (150 mM NaCl, 50 mM TrisHCl, 0.5% NP-40 (Fluka, Buchs, Switzerland), 5 mM EDTA, pH 7.5) with 0.5% Mega-9 (Sigma, St. Louis, USA) in the presence of protease inhibitors (2 mM PMSF, 5 mM iodoacetamide, 2 μg/ml pepstatin, 2 μg/ml leupeptin) with or without synthetic peptide (for a list of positive control peptides, see Table 2).
After 20 min of incubation, the cell nuclei were removed by centrifugation (5 min, 10,000 g) and 50 μl (10% v/v) freshly washed Staphylococcus aureus organisms (Pansorbin, Calbiochem, Nottingham, UK). The next day Pansorbin was removed by centrifugation (12 min, 16,000 g) and the appropriate monoclonal antibody was added at a final concentration of 10 μg/ml, incubated for 90 min, followed by addition of protein A-Sepharose (75 μl, 10% v/v) and incubation for 1 h. The beads were washed 4 times and stored at −20° C. until analysis by electrophoresis.
In the case of an assembly assay with the HLA class I-specific conformation-dependent monoclonal antibody W6/32, samples were eluted in reducing buffer (9.5 M urea, 2% NP-40, 5% 2-mercaptoethanol, 2% Ampholines, pH range 3.5-9.5 (Pharmacia Biotech, Uppsala, Sweden)) and focused for 16 h at 880 V on 5.5% polyacrylamide isoelectric focusing (IEF) gels^20,39.
Samples from assembly assays with allele-specific antibodies were eluted by boiling (5 min) in SDS reducing buffer (50 mM TrisHCl pH 6.8, 2% SDS, 5% 2-mercaptoethanol, 10% glycerol, 2.5% bromophenol blue) and electrophorezed on 12% SDS-PAGE gels (1 h at 200 V). All gels were fixed in 10% acetic acid with 5% methanol and dried onto 3 MM paper (Whatman, Maidstone, UK). MHC heavy chain bands were quantified using the Imagequant Phosphorimager program (Molecular Dynamics, Sunnyvale, Calif., USA). The intensity of the band is directly related to the amount of peptide-bound class I MHC complex recovered during the assay. C50 value (μM) as the concentration of the peptide required for half maximal binding to MHC may thus be determined. The binding affinities of the analysed peptides are determined according to their efficiency of stabilising the HLA class I molecules. The binding affinity is represented as the peptide concentration required to reach half-maximal stabilistation of appropriate HLA-molecule.
Assembly assays for binding of the synthetic peptides to class I MHC molecules metabolically labeled with [^35S]-methionine were carried out as described^15,16. The assembly assay is based on stabilization of the class 1 molecule after loading of peptide to the peptide transporter deficient cell line T2. Subsequently correctly folded stable MHC heavy chains are immunoprecipitated using conformation-dependent antibodies. After IEF electrophoresis, gels were exposed to phosphorImager screens, and peptide binding was quantitated using the Imagequant PhosphorImager program (Molecular Dynamics, Sunnyvale, Calif.).

[1] = test system: primary melanoma sections; assay: In situ detection of ML-IAP-reactive CTL with multimerized HLA-A2/peptide complexes; design: species or system human; conditions: sections of primary melanoma from six patients
From the text: In situ detection of ML-IAP-reactive CTL. Confocal laser scanning microscopy was used to detect CTL reacting with a Cy3-conjugated anti-CD8 antibody (red channel) and a fluorescein isothiocyanate-conjugated multimeric HLA-A2/ML-IAP280 construct (green channel) (first and second columns) or with a fluorescein isothiocyanate conjugated multimeric HLA-A2/ML-IAP245 construct (last column) in primary tumors from two HLA-A2-positive melanoma patients.
HLA-A2 and ML-IAP245/HLA-A2-specific monomers were multimerized using dextran molecules, which were conjugated with both streptavidin and fluorescein isothiocyanate. Multimerized MHC complexes were used to stain acetone-fixed, frozen material as described previously^11,48 and antigen-specific cells were visualized using a confocal laser microscope. Sections of primary melanoma from six patients were analyzed, and ML-IAP280- and ML-IAP245-reactive CTL could readily be detected in situ in the tumor microenvironment in two of the patients (FIG. 4).

Which results are given for `CC(C)C[C@H](NC(=O)[C@@H](N)CCCNC(=N)N)C(=O)N[C@@H](CCC(N)=O)C(=O)N[C@@H](CCC(=O)O)C(=O)N[C@@H](CCC(=O)O)C(=O)N[C@@H](CCCNC(=N)N)C(=O)N[C@H](C(=O)N[C@@H](CS)C(=O)N[C@@H](CCCCN)C(=O)N[C@H](C(=O)O)C(C)C)[C@@H](C)O` [ML-IAP245]?
EC50 (HLA-A2): 1000 nM; patients with peptide-reactive CTL detected in situ in the tumor microenvironment [1]: two
